Results as given in PMC11178787, “Development of a natural product optimization strategy for inhibitors against MraY, a promising antibacterial target” (Nature Communications, 2024).
≈ marks a conversion by molar mass, not a printed value.

How the values were obtained:
Assay in all cases: microbe, parasite or virus in culture
A. baumannii ATCC 19606 = tested on: T1, A. baumannii ATCC 19606; details: Acinetobacter baumannii, ATCC19606
T1 construct: ATCC 19606
Method: (§1) MICs were determined by a microdilution broth method as recommended by the CLSI with MHB-II. For MICs of stable analogues, a 2-fold dilution of each compound was prepared in DMSO at 100-fold of the final concentration. The strains were inoculated with 5 × 10^5 cfu/mL in 96-well plates (each 100 μL/well), and 1 μL of DMSO solutions of the samples were added (contained less than 1% DMSO). The plates were incubated at 37 °C for 18 h and then MICs were determined. MICs of stable analogues in Table 1 were the highest value in three trials. MICs in Supplementary Table 1 were determined in one trial.  Fig. 2 Results of biological evaluations of hydrazone library. a General structures of hydrazine fragment moiety are shown. Each hydrazine class are represented by different colours (green; BZ, cyan; PA, grey; AC, yellow; AA, orange; LA). b–h MraY inhibitory activity and antibacterial activity of the hydrazone library. The bar graphs show the relative enzyme activity with DMSO as 100% when the compound is treated at given concentration (b,c; TUN at 100 nM, d,e; MRY at 10 nM, f.g; MRD at 100 nM, h; CAP at 1000 nM. n = 1), with the lower bars indicating higher inhibitory activity. The colour of the bars corresponds to Fig. 2a. […] Data of control compounds (van: vancomycin, col: colistin) are shown left column in each panel. E. faecium ATCC 35667, S. aureus ATCC 29213, P. aeruginosa ATCC 27853, K. pneumoniae ATCC 13883, E. cloacae ATCC 13047, A. baumannii ATCC 19606, E. coli ATCC 25922.

E. cloacae ATCC 13047 = tested on: T2, E. cloacae ATCC 13047; details: Enterobacter cloacae, ATCC13047
T2 construct: ATCC 13047
Method: as §1

E. faecium ATCC 35667 = tested on: T3, E. faecium ATCC 35667; details: Enterococcus faecium, ATCC35667
T3 construct: ATCC 35667
Method: as §1

S. aureus ATCC 29213 = tested on: T4, S. aureus ATCC 29213; details: Staphylococcus aureus, ATCC29213
T4 construct: ATCC 29213
Method: as §1

E. coli ATCC 25922 = tested on: T5, E. coli ATCC 25922; details: Escherichia coli, ATCC25922
T5 construct: ATCC 25922
Method: as §1

Enterococcus faecalis 29 = tested on: T6, Enterococcus faecalis 29; design: CLSI broth microdilution MIC in MHB-II; details: Enterococcus faecalis, 29, 18 h, read-out: MIC
T6 construct: 29
Outline: (§2)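 MIC read after 18 h at 37 °C by CLSI broth microdilution (MHB-II). Inoculum 5 × 10^5 cfu/mL; 2-fold compound series from DMSO stocks at 100× final, DMSO <1%. Highest value of three trials reported; some compounds tested once.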

[1] = tested on: T7, Staphylococcus aureus #2931; design: CLSI broth microdilution MIC in MHB-II; details: Staphylococcus aureus, 18 h, read-out: MIC
T7 construct: #2931
Outline: as §2

Enterococcus faecium 7 = tested on: Enterococcus faecium 7; design: CLSI broth microdilution MIC in MHB-II; details: Enterococcus faecium, 7, 18 h, read-out: MIC
Outline: as §2

Enterococcus faecium 4 = tested on: Enterococcus faecium 4; design: CLSI broth microdilution MIC in MHB-II; details: Enterococcus faecium, 4, 18 h, read-out: MIC
Outline: as §2

Enterococcus faecalis 26 = tested on: T8, Enterococcus faecalis 26; design: CLSI broth microdilution MIC in MHB-II; details: Enterococcus faecalis, 26, 18 h, read-out: MIC
T8 construct: 26
Outline: as §2

Enterococcus faecium 2 = tested on: Enterococcus faecium 2; design: CLSI broth microdilution MIC in MHB-II; details: Enterococcus faecium, 2, 18 h, read-out: MIC
Outline: as §2

Enterococcus faecalis 28 = tested on: T9, Enterococcus faecalis 28; design: CLSI broth microdilution MIC in MHB-II; details: Enterococcus faecalis, 28, 18 h, read-out: MIC
T9 construct: 28
Outline: as §2

Enterococcus faecalis 23 = tested on: T10, Enterococcus faecalis 23; design: CLSI broth microdilution MIC in MHB-II; details: Enterococcus faecalis, 23, 18 h, read-out: MIC
T10 construct: 23
Outline: as §2

Enterococcus faecium 8 = tested on: Enterococcus faecium 8; design: CLSI broth microdilution MIC in MHB-II; details: Enterococcus faecium, 8, 18 h, read-out: MIC
Outline: as §2

Enterococcus faecium 11 = tested on: T11, Enterococcus faecium 11; design: CLSI broth microdilution MIC in MHB-II; details: Enterococcus faecium, 11, 18 h, read-out: MIC
T11 construct: 11
Outline: as §2

Enterococcus faecalis 30 = tested on: T12, Enterococcus faecalis 30; design: CLSI broth microdilution MIC in MHB-II; details: Enterococcus faecalis, 30, 18 h, read-out: MIC
T12 construct: 30
Outline: as §2

[2] = tested on: T13, Staphylococcus aureus #2334; design: CLSI broth microdilution MIC in MHB-II; details: Staphylococcus aureus, 18 h, read-out: MIC
T13 construct: #2334
Outline: as §2

Enterococcus faecium 5 = tested on: Enterococcus faecium 5; design: CLSI broth microdilution MIC in MHB-II; details: Enterococcus faecium, 5, 18 h, read-out: MIC
Outline: as §2

Enterococcus faecium 3 = tested on: Enterococcus faecium 3; design: CLSI broth microdilution MIC in MHB-II; details: Enterococcus faecium, 3, 18 h, read-out: MIC
Outline: as §2

[3] = tested on: T14, Staphylococcus aureus #2932; design: CLSI broth microdilution MIC in MHB-II; details: Staphylococcus aureus, 18 h, read-out: MIC
T14 construct: #2932
Outline: as §2

For CN[C@H](CC(C)C)C(=O)N[C@H]1C(=O)N[C@@H](CC(N)=O)C(=O)N[C@H]2C(=O)N[C@H]3C(=O)N[C@H](C(=O)N[C@H](C(=O)O)c4cc(O)cc(O)c4-c4cc3ccc4O)[C@H](O)c3ccc(c(Cl)c3)Oc3cc2cc(c3O[C@@H]2O[C@H](CO)[C@@H](O)[C@H](O)[C@H]2O[C@H]2C[C@](C)(N)[C@H](O)[C@H](C)O2)Oc2ccc(cc2Cl)[C@H]1O [vancomycin], the MIC (A. baumannii ATCC 19606) was 50 µM (≈ 72.5 µg/mL), the MIC (E. cloacae ATCC 13047) was greater than 50 µM and the MIC (E. faecium ATCC 35667) was less than 0.5 µM. The MIC (S. aureus ATCC 29213) was less than 0.5 µM, the MIC (E. coli ATCC 25922) was greater than 50 µM and the MIC (Enterococcus faecalis 29) was 1 µg/mL (≈ 0.69 µM). The MIC [1] was 1 µg/mL (≈ 0.69 µM), the MIC (Enterococcus faecium 7) was 0.5 µg/mL (≈ 0.345 µM) and the MIC (Enterococcus faecium 4) was 1 µg/mL (≈ 0.69 µM). For the same compound, the MIC (Enterococcus faecalis 26) was 1 µg/mL (≈ 0.69 µM), the MIC (Enterococcus faecium 2) was 1 µg/mL (≈ 0.69 µM) and the MIC (Enterococcus faecalis 28) was 1 µg/mL (≈ 0.69 µM). For the same compound, the MIC (Enterococcus faecalis 23) was 1 µg/mL (≈ 0.69 µM), the MIC (Enterococcus faecium 8) was 1 µg/mL (≈ 0.69 µM) and the MIC (Enterococcus faecium 11) was 1 µg/mL (≈ 0.69 µM). For the same compound, the MIC (Enterococcus faecalis 30) was 1 µg/mL (≈ 0.69 µM), the MIC [2] was 2 µg/mL (≈ 1.38 µM) and the MIC (Enterococcus faecium 5) was 1 µg/mL (≈ 0.69 µM). The MIC (Enterococcus faecium 3) was 1 µg/mL (≈ 0.69 µM) and the MIC [3] was 2 µg/mL (≈ 1.38 µM).
